# Laboratory results as given in patent publication US9113629B2, “4-amino-6-(4-substituted-phenyl)-picolinates and 6-amino-2-(4-substituted-phenyl)-pyrimidine-4-carboxylates and their use as herbicides” (DOW AGROSCIENCES LLC, priority 2013, dated 2015).
# Like-named read-outs stand apart in the source and are kept apart here.
# Tests used:
# [1] = tested on: Key Broadleaf Weed and Crop Species; assay: Post-emergent Test II herbicidal activity (Table 5); type: in vivo; conditions: post-emergence, 336 h, post-emergent, 14 days after application; for pest or weed control at 70 g/ha: 70 g ai/ha; for pest or weed control at 140 g/ha: 140 g ai/ha
# Summary of the method: (§1)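 Percent injury, 0 (none) to 100 (complete kill), was judged visually 14 d after spraying young plants at the first or second true leaf stage with compound in an acetone/DMSO aqueous carrier at 187 L/ha. Plants were kept in a greenhouse at 23–29 °C by day.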
# [2] = tested on: Key Grass and Sedge Weeds as well as Grass Crops; assay: Post-emergent Test II herbicidal activity (Table 6); type: in vivo; conditions: post-emergence, 336 h; for pest or weed control at 70 g/ha: application rate 70 g ai/ha; for pest or weed control at 140 g/ha: application rate 140 g ai/ha
# Summary of the method: as §1
# [3] = ABUTH: velvetleaf (Abutilon theophrasti), read-out: Visual Growth Reduction (%) 14 Days After Application ABUTH
# [4] = AMARE: redroot pigweed (Amaranthus retroflexus), read-out: Visual Growth Reduction (%) 14 Days After Application AMARE
# [5] = BRSNN: oilseed-rape, canola (Brassica napus), read-out: Visual Growth Reduction (%) 14 Days After Application BRSNN
# [6] = CHEAL: lambsquarters (Chenopodium album), read-out: Visual Growth Reduction (%) 14 Days After Application CHEAL
# [7] = EPHHL: wild poinsettia (Euphorbia heterophylla), read-out: Visual Growth Reduction (%) 14 Days After Application EPHHL
# [8] = HELAN: sunflower (Helianthus annuus), read-out: Visual Growth Reduction (%) 14 Days After Application HELAN
# [9] = VIOTR: wild pansy (Viola tricolor), read-out: Visual Growth Reduction (%) 14 Days After Application VIOTR
# [10] = Triticum aestivum, TRZSS (wheat), read-out: Visual Growth Reduction (%) 14 Days After Application, TRZSS
# [11] = CYPES: yellow nutsedge (Cyperus esculentus), read-out: Visual Growth Reduction (%) 14 Days After Application, CYPES
# [12] = DIGSA: crabgrass (Digitaria sanguinalis), read-out: Visual Growth Reduction (%) 14 Days After Application, DIGSA
# [13] = ECHCG: barnyardgrass (Echinochloa crus-galli), read-out: Visual Growth Reduction (%) 14 Days After Application, ECHCG
# [14] = ORYSA: rice (Oryza sativa), read-out: Visual Growth Reduction (%) 14 Days After Application, ORYSA
# [15] = SETFA: giant foxtail (Setaria faberi), read-out: Visual Growth Reduction (%) 14 Days After Application, SETFA
# [16] = SORVU: grain sorghum (Sorghum vulgare), read-out: Visual Growth Reduction (%) 14 Days After Application, SORVU
# [17] = ZEAMX: maize, corn (Zea mays), read-out: Visual Growth Reduction (%) 14 Days After Application, ZEAMX
SMILES,"pest or weed control at 70 g/ha [1, 3] [%]","pest or weed control at 140 g/ha [1, 3] [%]","pest or weed control at 70 g/ha [1, 4] [%]","pest or weed control at 140 g/ha [1, 4] [%]","pest or weed control at 70 g/ha [1, 5] [%]","pest or weed control at 140 g/ha [1, 5] [%]","pest or weed control at 70 g/ha [1, 6] [%]","pest or weed control at 140 g/ha [1, 6] [%]","pest or weed control at 70 g/ha [1, 7] [%]","pest or weed control at 140 g/ha [1, 7] [%]","pest or weed control at 70 g/ha [1, 8] [%]","pest or weed control at 140 g/ha [1, 8] [%]","pest or weed control at 70 g/ha [1, 9] [%]","pest or weed control at 140 g/ha [1, 9] [%]","pest or weed control at 70 g/ha [2, 10] [%]","pest or weed control at 140 g/ha [2, 10] [%]","pest or weed control at 70 g/ha [2, 11] [%]","pest or weed control at 140 g/ha [2, 11] [%]","pest or weed control at 70 g/ha [2, 12] [%]","pest or weed control at 140 g/ha [2, 12] [%]",also measured
COC(=O)c1nc(-c2cc(F)c(I)cc2F)nc(N)c1OC [Compound 101],85 to 94,85 to 94,85 to 94,85 to 94,95 to 100,95 to 100,85 to 94,85 to 94,95 to 100,95 to 100,85 to 94,85 to 94,0 to 29,0 to 29,30 to 44,30 to 44,45 to 59,45 to 59,45 to 59,60 to 74,"pest or weed control at 70 g/ha [2, 13]: 0 to 29%; pest or weed control at 140 g/ha [2, 13]: 85 to 94%; pest or weed control at 70 g/ha [2, 14]: 0 to 29%; pest or weed control at 140 g/ha [2, 14]: 0 to 29%; pest or weed control at 70 g/ha [2, 15]: 0 to 29%; pest or weed control at 140 g/ha [2, 15]: 60 to 74%; pest or weed control at 70 g/ha [2, 16]: 30 to 44%; pest or weed control at 140 g/ha [2, 16]: 45 to 59%; pest or weed control at 70 g/ha [2, 17]: 60 to 74%; pest or weed control at 140 g/ha [2, 17]: 60 to 74%; melting point: 193 to 194 °C"
"COC(=O)c1nc(-c2cc(F)c(Br)cc2F)cc(N)c1Cl [Compound 127, methyl 4-amino-6-(4-bromo-2,5-difluorophenyl)-3-chloropicolinate]",95 to 100,95 to 100,95 to 100,95 to 100,85 to 94,95 to 100,95 to 100,95 to 100,95 to 100,95 to 100,85 to 94,95 to 100,95 to 100,95 to 100,60 to 74,75 to 84,95 to 100,95 to 100,85 to 94,95 to 100,"pest or weed control at 70 g/ha [2, 13]: 95 to 100%; pest or weed control at 140 g/ha [2, 13]: 95 to 100%; pest or weed control at 70 g/ha [2, 14]: 0 to 29%; pest or weed control at 140 g/ha [2, 14]: 0 to 29%; pest or weed control at 70 g/ha [2, 15]: 95 to 100%; pest or weed control at 140 g/ha [2, 15]: 95 to 100%; pest or weed control at 70 g/ha [2, 16]: 95 to 100%; pest or weed control at 140 g/ha [2, 16]: 95 to 100%; pest or weed control at 70 g/ha [2, 17]: 85 to 94%; pest or weed control at 140 g/ha [2, 17]: 85 to 94%; melting point: 174 to 176 °C"
C=Cc1c(C(=O)O)nc(-c2ccc(Br)cc2)c(F)c1N [Compound 117],95 to 100,95 to 100,95 to 100,95 to 100,75 to 84,75 to 84,95 to 100,95 to 100,95 to 100,95 to 100,85 to 94,85 to 94,0 to 29,0 to 29,0 to 29,0 to 29,95 to 100,95 to 100,0 to 29,0 to 29,"pest or weed control at 70 g/ha [2, 13]: 75 to 84%; pest or weed control at 140 g/ha [2, 13]: 75 to 84%; pest or weed control at 70 g/ha [2, 14]: 45 to 59%; pest or weed control at 140 g/ha [2, 14]: 45 to 59%; pest or weed control at 70 g/ha [2, 15]: 0 to 29%; pest or weed control at 140 g/ha [2, 15]: 45 to 59%; pest or weed control at 70 g/ha [2, 16]: 85 to 94%; pest or weed control at 140 g/ha [2, 16]: 85 to 94%; pest or weed control at 70 g/ha [2, 17]: 45 to 59%; pest or weed control at 140 g/ha [2, 17]: 60 to 74%; melting point: 149 to 151 °C"
Nc1c(F)c(-c2cc(F)c(I)cc2F)nc(C(=O)O)c1Cl [Compound 69],85 to 94,85 to 94,95 to 100,95 to 100,95 to 100,95 to 100,95 to 100,95 to 100,95 to 100,95 to 100,95 to 100,95 to 100,95 to 100,95 to 100,60 to 74,85 to 94,45 to 59,95 to 100,95 to 100,95 to 100,"pest or weed control at 70 g/ha [2, 13]: 95 to 100%; pest or weed control at 140 g/ha [2, 13]: 95 to 100%; pest or weed control at 70 g/ha [2, 14]: 0 to 29%; pest or weed control at 140 g/ha [2, 14]: 0 to 29%; pest or weed control at 70 g/ha [2, 15]: 95 to 100%; pest or weed control at 140 g/ha [2, 15]: 95 to 100%; pest or weed control at 70 g/ha [2, 16]: 95 to 100%; pest or weed control at 140 g/ha [2, 16]: 95 to 100%; pest or weed control at 70 g/ha [2, 17]: 75 to 84%; pest or weed control at 140 g/ha [2, 17]: 75 to 84%; melting point: 159 to 161 °C"
